Assay results taken from article PMC6032158, “Structure–Activity Relationship of Piplartine and Synthetic Analogues against Schistosoma mansoni and Cytotoxicity to Mammalian Cells” (International Journal of Molecular Sciences, 2018).
“Also recorded” adds a separate entry of the source.

Assays:
[1] = test system: murine fibroblast (NIH-3T3) cells; assay: MTT cytotoxicity assay in murine fibroblasts; type: cell-based; conditions: for effect on NIH-3T3 cell viability (in words): MTT, 24 h exposure, 25 to 800 µg/mL; for Emax at 800 µg/mL: Mus musculus, NIH3T3, 24 h, decrease in cell viability at the maximum concentration tested (800 μg/mL), NIH-3T3, 24 h
Description: Next, the medium was removed and various concentrations (25–800 µg/mL) of samples reconstituted in 3% DMSO were applied. DMSO (3%) was used as a control. The plates were incubated for 24 h. Next, 15 µL of MTT solution (5 mg/mL in phosphate buffer) was added to each well and the plates were incubated for 2 h. Medium was discarded and 100 µL of DMSO was added to each well. Absorbance was determined using a spectrophotometer with a microplate reader at 595 nm (Molecular Devices Corporation, Sunnyvale, CA, USA).

[2] = test system: 49-day-old S. mansoni adult worms; assay: In vitro experiments with adult worms of S. mansoni (mortality, motor activity); type: cell-based, Schistosoma mansoni; conditions: for Dead Worms (%) F / Motor Activity Reduction (%) Significant F / Motor Activity Reduction (%) Slight F: female worms; for Dead Worms (%) M / Motor Activity Reduction (%) Significant M / Motor Activity Reduction (%) Slight M: male worms; for activity against S. mansoni adult worms (in words): analogues 50, 25, 10 and 5 μM, piplartine 5 and 10 μM, up to 96 h
Description: The Belo Horizonte (BH) strain of S. mansoni was maintained in Biomphalaria glabrata snails and Mesocricetus auratus hamsters at the Adolfo Lutz Institute (São Paulo, Brazil) according to standard procedures. Detailed methods for the infection of molluscs and hamsters, as well as for the recovery of parasites, were as described previously. Briefly, the intermediate host snails were exposed to light for approximately 3 h and cercariae of S. mansoni were subsequently harvested. […] All animals were handled in strict accordance with good animal practice as defined by the Animal Use Ethics Committee. The preparations and culture of schistosomes was performed as previously described. Briefly, hamsters were killed 49 days after infection for the recovery of adult schistosomes. Next, fresh adult worm pairs (male and female) were washed and placed in a 24-well culture plate (TPP, St. […] Adult schistosomes were maintained continuously in medium (with or without drugs) for 96 h as described below. In vitro assays in S. mansoni adults were performed with mated males and females. The worm pairs obtained from the infusion hamsters were washed twice with RPMI 1640 medium containing 200 U/mL penicillin, 200 μg/mL streptomycin and 2 μg/mL amphotericin B (Vitrocell, Campinas, Brazil). The mated parasites were then transferred into 24-well cell culture plates (TPP, St. […] Cultures of adult worms were monitored by microscopy or magnifying glass. The effect of the drug was assessed with emphasis on changes in worm motor activity and death of worms as previously described.

[3] = test system: mouse BALB/cN macrophage (J774A.1) cell line; assay: Cell viability by flow cytometry in macrophages; conditions: 24 h, 25, 100 and 400 µg/mL, vs DMEM control

Structure (SMILES): COc1cc(/C=C/C(=O)N2CCCC2)cc(OC)c1OC [Compound 1G]
- effect on NIH-3T3 cell viability (in words) [1]: considerable reduction in cell viability at concentrations of 400 and 800 μg/mL; also recorded: showed toxicity at 200, 400 and 800 μg/mL
- Emax at 800 µg/mL [1]: 95.69 ± 0.79%
- Dead Worms (%) F ([2]; 5 µM, 24 h): 0%
- Motor Activity Reduction (%) Significant F ([2]; 5 µM, 24 h): 0%
- Motor Activity Reduction (%) Slight F ([2]; 5 µM, 24 h): 0%
- Dead Worms (%) M ([2]; 5 µM, 24 h): 0%
- Motor Activity Reduction (%) Significant M ([2]; 5 µM, 24 h): 0%
- Motor Activity Reduction (%) Slight M ([2]; 5 µM, 24 h): 0%
- Dead Worms (%) F ([2]; 5 µM, 48 h): 0%
- Motor Activity Reduction (%) Significant F ([2]; 5 µM, 48 h): 0%
- Motor Activity Reduction (%) Slight F ([2]; 5 µM, 48 h): 0%
- Dead Worms (%) M ([2]; 5 µM, 48 h): 0%
- Motor Activity Reduction (%) Significant M ([2]; 5 µM, 48 h): 0%
- Motor Activity Reduction (%) Slight M ([2]; 5 µM, 48 h): 0%
- Dead Worms (%) F ([2]; 5 µM, 72 h): 0%
- Motor Activity Reduction (%) Significant F ([2]; 5 µM, 72 h): 0%
- Motor Activity Reduction (%) Slight F ([2]; 5 µM, 72 h): 0%
- Dead Worms (%) M ([2]; 5 µM, 72 h): 0%
- Motor Activity Reduction (%) Significant M ([2]; 5 µM, 72 h): 0%
- Motor Activity Reduction (%) Slight M ([2]; 5 µM, 72 h): 0%
- Dead Worms (%) F ([2]; 5 µM, 96 h): 0%
- Motor Activity Reduction (%) Significant F ([2]; 5 µM, 96 h): 0%
- Motor Activity Reduction (%) Slight F ([2]; 5 µM, 96 h): 0%
- Dead Worms (%) M ([2]; 5 µM, 96 h): 0%
- Motor Activity Reduction (%) Significant M ([2]; 5 µM, 96 h): 0%
- Motor Activity Reduction (%) Slight M ([2]; 5 µM, 96 h): 0%
- Dead Worms (%) F ([2]; 10 µM, 24 h): 0%
- Motor Activity Reduction (%) Significant F ([2]; 10 µM, 24 h): 0%
- Motor Activity Reduction (%) Slight F ([2]; 10 µM, 24 h): 0%
- Dead Worms (%) M ([2]; 10 µM, 24 h): 0%
- Motor Activity Reduction (%) Significant M ([2]; 10 µM, 24 h): 0%
- Motor Activity Reduction (%) Slight M ([2]; 10 µM, 24 h): 0%
- Dead Worms (%) F ([2]; 10 µM, 48 h): 0%
- Motor Activity Reduction (%) Significant F ([2]; 10 µM, 48 h): 0%
- Motor Activity Reduction (%) Slight F ([2]; 10 µM, 48 h): 0%
- Dead Worms (%) M ([2]; 10 µM, 48 h): 0%
- Motor Activity Reduction (%) Significant M ([2]; 10 µM, 48 h): 0%
- Motor Activity Reduction (%) Slight M ([2]; 10 µM, 48 h): 0%
- Dead Worms (%) F ([2]; 10 µM, 72 h): 0%
- Motor Activity Reduction (%) Significant F ([2]; 10 µM, 72 h): 0%
- Motor Activity Reduction (%) Slight F ([2]; 10 µM, 72 h): 0%
- Dead Worms (%) M ([2]; 10 µM, 72 h): 0%
- Motor Activity Reduction (%) Significant M ([2]; 10 µM, 72 h): 0%
- Motor Activity Reduction (%) Slight M ([2]; 10 µM, 72 h): 0%
- Dead Worms (%) F ([2]; 10 µM, 96 h): 0%
- Motor Activity Reduction (%) Significant F ([2]; 10 µM, 96 h): 0%
- Motor Activity Reduction (%) Slight F ([2]; 10 µM, 96 h): 0%
- Dead Worms (%) M ([2]; 10 µM, 96 h): 0%
- Motor Activity Reduction (%) Significant M ([2]; 10 µM, 96 h): 0%
- Motor Activity Reduction (%) Slight M ([2]; 10 µM, 96 h): 0%
- Dead Worms (%) F ([2]; 25 µM, 24 h): 0%
- Motor Activity Reduction (%) Significant F ([2]; 25 µM, 24 h): 0%
- Motor Activity Reduction (%) Slight F ([2]; 25 µM, 24 h): 0%
- Dead Worms (%) M ([2]; 25 µM, 24 h): 0%
- Motor Activity Reduction (%) Significant M ([2]; 25 µM, 24 h): 0%
- Motor Activity Reduction (%) Slight M ([2]; 25 µM, 24 h): 0%
- Dead Worms (%) F ([2]; 25 µM, 48 h): 0%
- Motor Activity Reduction (%) Significant F ([2]; 25 µM, 48 h): 0%
- Motor Activity Reduction (%) Slight F ([2]; 25 µM, 48 h): 0%
- Dead Worms (%) M ([2]; 25 µM, 48 h): 0%
- Motor Activity Reduction (%) Significant M ([2]; 25 µM, 48 h): 0%
- Motor Activity Reduction (%) Slight M ([2]; 25 µM, 48 h): 0%
- Dead Worms (%) F ([2]; 25 µM, 72 h): 0%
- Motor Activity Reduction (%) Significant F ([2]; 25 µM, 72 h): 0%
- Motor Activity Reduction (%) Slight F ([2]; 25 µM, 72 h): 0%
- Dead Worms (%) M ([2]; 25 µM, 72 h): 0%
- Motor Activity Reduction (%) Significant M ([2]; 25 µM, 72 h): 0%
- Motor Activity Reduction (%) Slight M ([2]; 25 µM, 72 h): 0%
- Dead Worms (%) F ([2]; 25 µM, 96 h): 0%
- Motor Activity Reduction (%) Significant F ([2]; 25 µM, 96 h): 0%
- Motor Activity Reduction (%) Slight F ([2]; 25 µM, 96 h): 0%
- Dead Worms (%) M ([2]; 25 µM, 96 h): 0%
- Motor Activity Reduction (%) Significant M ([2]; 25 µM, 96 h): 0%
- Motor Activity Reduction (%) Slight M ([2]; 25 µM, 96 h): 0%
- Dead Worms (%) F ([2]; 50 µM, 24 h): 0%
- Motor Activity Reduction (%) Significant F ([2]; 50 µM, 24 h): 0%
- Motor Activity Reduction (%) Slight F ([2]; 50 µM, 24 h): 0%
- Dead Worms (%) M ([2]; 50 µM, 24 h): 0%
- Motor Activity Reduction (%) Significant M ([2]; 50 µM, 24 h): 0%
- Motor Activity Reduction (%) Slight M ([2]; 50 µM, 24 h): 0%
- Dead Worms (%) F ([2]; 50 µM, 48 h): 0%
- Motor Activity Reduction (%) Significant F ([2]; 50 µM, 48 h): 0%
- Motor Activity Reduction (%) Slight F ([2]; 50 µM, 48 h): 0%
- Dead Worms (%) M ([2]; 50 µM, 48 h): 0%
- Motor Activity Reduction (%) Significant M ([2]; 50 µM, 48 h): 0%
- Motor Activity Reduction (%) Slight M ([2]; 50 µM, 48 h): 0%
- Dead Worms (%) F ([2]; 50 µM, 72 h): 0%
- Motor Activity Reduction (%) Significant F ([2]; 50 µM, 72 h): 0%
- Motor Activity Reduction (%) Slight F ([2]; 50 µM, 72 h): 0%
- Dead Worms (%) M ([2]; 50 µM, 72 h): 0%
- Motor Activity Reduction (%) Significant M ([2]; 50 µM, 72 h): 0%
- Motor Activity Reduction (%) Slight M ([2]; 50 µM, 72 h): 0%
- Dead Worms (%) F ([2]; 50 µM, 96 h): 0%
- Motor Activity Reduction (%) Significant F ([2]; 50 µM, 96 h): 0%
- Motor Activity Reduction (%) Slight F ([2]; 50 µM, 96 h): 0%
- Dead Worms (%) M ([2]; 50 µM, 96 h): 0%
- Motor Activity Reduction (%) Significant M ([2]; 50 µM, 96 h): 0%
- Motor Activity Reduction (%) Slight M ([2]; 50 µM, 96 h): 0%
- activity against S. mansoni adult worms (in words) [2]: did not exhibit antischistosome activity at the concentrations tested
- effect on J774A.1 cell viability (in words) [3]: significantly altered (p < 0.05) cell viability in comparison with the negative control, but not in a toxic manner

Structure (SMILES): CCCCOC(=O)/C=C/C=C/c1cc(OC)c(OC)c(OC)c1 [Compound 19A]
- effect on NIH-3T3 cell viability (in words) [1]: did not exert significant effects on mammalian cell viability at the tested concentrations
- Emax at 800 µg/mL [1]: < 50%
- Dead Worms (%) F ([2]; 25 µM, 24 h): 0%
- Motor Activity Reduction (%) Significant F ([2]; 25 µM, 24 h): 0%
- Motor Activity Reduction (%) Slight F ([2]; 25 µM, 24 h): 0%
- Dead Worms (%) M ([2]; 25 µM, 24 h): 0%
- Motor Activity Reduction (%) Significant M ([2]; 25 µM, 24 h): 0%
- Motor Activity Reduction (%) Slight M ([2]; 25 µM, 24 h): 0%
- Dead Worms (%) F ([2]; 50 µM, 24 h): 0%
- Motor Activity Reduction (%) Significant F ([2]; 50 µM, 24 h): 0%
- Motor Activity Reduction (%) Slight F ([2]; 50 µM, 24 h): 0%
- Dead Worms (%) M ([2]; 50 µM, 24 h): 0%
- Motor Activity Reduction (%) Significant M ([2]; 50 µM, 24 h): 0%
- Motor Activity Reduction (%) Slight M ([2]; 50 µM, 24 h): 0%
- Dead Worms (%) F ([2]; 50 µM, 48 h): 0%
- Motor Activity Reduction (%) Significant F ([2]; 50 µM, 48 h): 0%
- Motor Activity Reduction (%) Slight F ([2]; 50 µM, 48 h): 0%
- Dead Worms (%) M ([2]; 50 µM, 48 h): 0%
- Motor Activity Reduction (%) Significant M ([2]; 50 µM, 48 h): 0%
- Motor Activity Reduction (%) Slight M ([2]; 50 µM, 48 h): 0%
- Dead Worms (%) F ([2]; 50 µM, 72 h): 0%
- Motor Activity Reduction (%) Significant F ([2]; 50 µM, 72 h): 0%
- Motor Activity Reduction (%) Slight F ([2]; 50 µM, 72 h): 0%
- Dead Worms (%) M ([2]; 50 µM, 72 h): 0%
- Motor Activity Reduction (%) Significant M ([2]; 50 µM, 72 h): 0%
- Motor Activity Reduction (%) Slight M ([2]; 50 µM, 72 h): 0%
- Dead Worms (%) F ([2]; 50 µM, 96 h): 0%
- Motor Activity Reduction (%) Significant F ([2]; 50 µM, 96 h): 0%
- Motor Activity Reduction (%) Slight F ([2]; 50 µM, 96 h): 0%
- Dead Worms (%) M ([2]; 50 µM, 96 h): 0%
- Motor Activity Reduction (%) Significant M ([2]; 50 µM, 96 h): 0%
- Motor Activity Reduction (%) Slight M ([2]; 50 µM, 96 h): 0%
- activity against S. mansoni adult worms (in words) [2]: loss of biological activity against S. mansoni
- effect on J774A.1 cell viability (in words) [3]: did not reduce cell viability at the same concentrations
